Results on 24 compounds are retold here after patent US9796741B2 (Achillion Pharmaceuticals, Inc., priority 2014, dated 2017).

Where only a bound is given, the exact number is not on record here.

Human factor D, sequence (P00746 26-253): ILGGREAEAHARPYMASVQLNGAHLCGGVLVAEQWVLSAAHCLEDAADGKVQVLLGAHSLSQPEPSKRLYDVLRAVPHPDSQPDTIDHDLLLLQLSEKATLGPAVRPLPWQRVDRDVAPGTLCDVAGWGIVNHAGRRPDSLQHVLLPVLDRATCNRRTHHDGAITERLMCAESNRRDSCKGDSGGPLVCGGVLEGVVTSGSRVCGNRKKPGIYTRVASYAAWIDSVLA

One experiment concerns the target Human factor D (Homo sapiens (Human), UniProt P00746). Kind of experiment: Human Factor D Assay. The format is biochemical.
Conditions: not given
The procedure:
Human factor D (purified from human serum, Complement Technology, Inc.) at 80 nM final concentration is incubated with test compound at various concentrations for 5 minutes at room temperature in 50 mM Tris, 1M NaCl, pH 7.5. A synthetic substrate Z-L-Lys-SBzl and DTNB (Ellman's reagent) are added to final concentrations of 100 μM each. The increase in color is recorded at OD405 nm in a microplate in kinetic mode over 30 minutes with 30 second time points in a spectrofluorimeter. IC50 values are calculated by non-linear regression from the percentage of inhibition of complement factor D activity as a function of test compound concentration.
With `CC(=O)c1cn(CC(=O)N2C[C@H](F)C[C@H]2C(=O)NC2CCCN(c3cnn(C)c3)C2)c2ccc(-c3ccnnc3)cc12` (stereo partly drawn) [Compound 140, (2S,4R)-1-(2-(3-acetyl-5-(pyridazin-4-yl)-1H-indol-1-yl)acetyl)-4-fluoro-N-(1-(1-methyl-1H-pyrazol-4-yl)piperidin-3-yl)pyrrolidine-2-carboxamide], the IC50 (usually the concentration that inhibits the measured activity by half) lay in the range of 1 to 10 µM.

The experiment is the same for the next values; noted with them: human factor D 80 nM, substrate Z-L-Lys-SBzl, DTNB.
In turn, `Cc1cc(NC(=O)[C@@H]2C[C@@H](F)CN2C(=O)Cn2nc(C(N)=O)c3cc(-c4ccnnc4)ccc32)n2nc(C(F)(F)F)nc2n1` [Compound 113, 1-(2-((2S,4R)-4-fluoro-2-(5-methyl-2-(trifluoromethyl)-[1,2,4]triazolo[1,5-a]pyrimidin-7-ylcarbamoyl)pyrrolidin-1-yl)-2-oxoethyl)-5-(pyridazin-4-yl)-1H-indazole-3-carboxamide] showed an IC50 of more than 10 µM.

As to `NC(=O)c1nn(CC(=O)N2C[C@H](F)C[C@H]2C(=O)Nc2cncc(Br)n2)c2ccc(-c3ccnnc3)cc12` [Compound 128, 1-(2-((2S,4R)-2-(6-bromopyrazin-2-ylcarbamoyl)-4-fluoropyrrolidin-1-yl)-2-oxoethyl)-5-(pyridazin-4-yl)-1H-indazole-3-carboxamide], the IC50 was less than 1 µM.

Compound `CC(=O)c1cn(CC(=O)N2C[C@H](F)C[C@H]2C(=O)N[C@H]2CCCC[C@@H]2OCc2ccccc2)c2ccc(-c3ccnnc3)cc12` [Compound 74, (2S,4R)-1-(2-(3-acetyl-5-(pyridazin-4-yl)-1H-indol-1-yl)acetyl)-N-((1S,2S)-2-(benzyloxy)cyclohexyl)-4-fluoropyrrolidine-2-carboxamide] showed an IC50 of more than 10 µM.

In the case of `CC(=O)c1cn(CC(=O)N2C[C@H](F)C[C@H]2C(=O)Nc2cccc(Cl)c2C(F)(F)F)c2ccc(-c3ccnnc3)cc12` [Compound 126, (2S,4R)-1-(2-(3-acetyl-5-(pyridazin-4-yl)-1H-indol-1-yl)acetyl)-N-(3-chloro-2-(trifluoromethyl)phenyl)-4-fluoropyrrolidine-2-carboxamide], the IC50 was more than 10 µM.

Compound `COc1ncc(-c2ccc3c(c2)c(C(C)=O)cn3CC(=O)N2C[C@H](F)C[C@H]2C(=O)Nc2cccc(Br)n2)cn1` [Compound 21, (2S,4R)-1-(2-(3-acetyl-5-(2-methoxypyrimidin-5-yl)-1H-indol-1-yl)acetyl)-N-(6-bromopyridin-2-yl)-4-fluoropyrrolidine-2-carboxamide] had a half-inhibitory concentration (IC50) of less than 1 µM.

For `CC(=O)c1cn(CC(=O)N2C[C@H](F)C[C@H]2C(=O)Nc2ccc3ccccc3c2)c2ccc(-c3ccnnc3)cc12` [Compound 110, (2S,4R)-1-(2-(3-acetyl-5-(pyridazin-4-yl)-1H-indol-1-yl)acetyl)-4-fluoro-N-(naphthalen-2-yl)pyrrolidine-2-carboxamide], the IC50 was more than 10 µM.

Consider `NC(=O)c1nn(CC(=O)N2[C@@H]3C[C@@H]3C[C@H]2C(=O)Nc2cccc(-c3ccccc3Cl)c2F)c2ccc(-c3ccc(F)nc3)cc12` [Compound 13, 1-(2-((lR,3S,5R)-3-(2′-chloro-2-fluorobiphenyl-3-ylcarbamoyl)-2-azabicyclo[3.1.0]hexan-2-yl)-2-oxoethyl)-5-(6-fluoropyridin-3-yl)-1H-indazole-3-carboxamide], for which the IC50 was less than 1 µM.

Turning to `CC(=O)c1nn(CC(=O)N2C[C@H](F)C[C@H]2C(=O)Nc2cccc(-c3ccccc3Cl)c2F)c2ccc(-c3cnc(C)nc3)cc12` [Compound 163, (2S,4R)-1-(2-(3-acetyl-5-(2-methylpyrimidin-5-yl)-1H-indazol-1-yl)acetyl)-N-(2′-chloro-2-fluorobiphenyl-3-yl)-4-fluoropyrrolidine-2-carboxamide], the IC50 is less than 1 µM.

In turn, `CC(=O)c1cn(CC(=O)N2C[C@H](F)C[C@H]2C(=O)Nc2cccc(Cl)c2-n2cncn2)c2ccc(-c3ccnnc3)cc12` [Compound 95, (2S,4R)-1-(2-(3-acetyl-5-(pyridazin-4-yl)-1H-indol-1-yl)acetyl)-N-(3-chloro-2-(1H-1,2,4-triazol-1-yl)phenyl)-4-fluoropyrrolidine-2-carboxamide] returned an IC50 of more than 10 µM.

For the compound `NC(=O)c1nn(CC(=O)N2C[C@H](F)C[C@H]2C(=O)Nc2cccc(Br)n2)c2ccc(-c3cncnc3)cc12` [Compound 5, 1-(2-((2S,4R)-2-(6-bromopyridin-2-ylcarbamoyl)-4-fluoropyrrolidin-1-yl)-2-oxoethyl)-5-(pyrimidin-5-yl)-1H-indazole-3-carboxamide], the half-inhibitory concentration (IC50) is less than 1 µM.

The compound `CC(=O)c1cn(CC(=O)N2C[C@H](F)C[C@H]2C(=O)Nc2cncc(Cl)c2)c2ccc(-c3ccnnc3)cc12` [Compound 66, (2S,4R)-1-(2-(3-acetyl-5-(pyridazin-4-yl)-1H-indol-1-yl)acetyl)-N-(5-chloropyridin-3-yl)-4-fluoropyrrolidine-2-carboxamide] yielded an IC50 of less than 1 µM.

With `CC(=O)c1cn(CC(=O)N2C[C@H](F)C[C@H]2C(=O)Nc2cccc3c2CN(c2ccccn2)C3)c2ccc(-c3ccnnc3)cc12` [Compound 105, (2S,4R)-1-(2-(3-acetyl-5-(pyridazin-4-yl)-1H-indol-1-yl)acetyl)-4-fluoro-N-(2-(pyridin-2-yl)isoindolin-4-yl)pyrrolidine-2-carboxamide], the IC50 is more than 10 µM.

Consider `NC(=O)c1nn(CC(=O)N2C[C@H](F)C[C@H]2C(=O)Nc2cc(O)ccn2)c2ccc(-c3ccnnc3)cc12` [Compound 154, 1-(2-((2S,4R)-4-fluoro-2-(4-hydroxypyridin-2-ylcarbamoyl)pyrrolidin-l-yl)-2-oxoethyl)-5-(pyridazin-4-yl)-1H-indazole-3-carboxamide], for which the IC50 is more than 10 µM.

Turning to `Cc1ncc(-c2ccc3c(c2)c(C(N)=O)nn3CC(=O)N2C[C@H](F)C[C@H]2C(=O)Nc2cccc(Br)n2)cn1` [Compound 101, 1-(2-((2S,4R)-2-(6-bromopyridin-2-ylcarbamoyl)-4-fluoropyrrolidin-1-yl)-2-oxoethyl)-5-(2-methylpyrimidin-5-yl)-1H-indazole-3-carboxamide], the half-inhibitory concentration (IC50) is less than 1 µM.

In turn, `NC(=O)c1nn(CC(=O)N2C[C@H](F)C[C@H]2C(=O)Nc2ccc(F)c(-c3nnc4n3CCCCC4)c2)c2ccc(-c3ccnnc3)cc12` [Compound 91, 1-(2-((2S,4R)-4-fluoro-2-(4-fluoro-3-(6,7,8,9-tetrahydro-5H-[1,2,4]triazolo[4,3-a]azepin-3-yl)phenylcarbamoyl)pyrrolidin-1-yl)-2-oxoethyl)-5-(pyridazin-4-yl)-1H-indazole-3-carboxamide] displayed an IC50 of more than 10 µM.

For the compound `CC1Oc2cccc(NC(=O)[C@@H]3C[C@@H](F)CN3C(=O)Cn3nc(C(N)=O)c4cc(-c5ccnnc5)ccc43)c2NC1=O` (stereo partly drawn) [Compound 152, 1-(2-((2S,4R)-4-fluoro-2-(2-methyl-3-oxo-3,4-dihydro-2H-benzo[b][1,4]oxazin-5-ylcarbamoyl)pyrrolidin-1-yl)-2-oxoethyl)-5-(pyridazin-4-yl)-1H-indazole-3-carboxamide], the IC50 was more than 10 µM.

Consider `CC(=O)c1cn(CC(=O)N2C[C@H](F)C[C@H]2C(=O)Nc2cccc(-c3ccccc3Cl)c2F)c2ccc(-c3cnnc(C)c3)cc12` [Compound 121, (2S,4R)-1-(2-(3-acetyl-5-(6-methylpyridazin-4-yl)-1H-indol-1-yl)acetyl)-N-(2′-chloro-2-fluorobiphenyl-3-yl)-4-fluoropyrrolidine-2-carboxamide], for which the IC50 was less than 1 µM.

`CNC(=O)[C@@H]1C[C@@H](F)CN1C(=O)Cn1nc(C(N)=O)c2cc(-c3ccnnc3)ccc21` [Compound 79, 1-(2-((2S,4R)-4-fluoro-2-(methylcarbamoyl)pyrrolidin-1-yl)-2-oxoethyl)-5-(pyridazin-4-yl)-1H-indazole-3-carboxamide] displayed a half-inhibitory concentration (IC50) of more than 10 µM.

Take `COc1cc(C)cc2c1OCCC2NC(=O)[C@@H]1C[C@@H](F)CN1C(=O)Cn1nc(C(N)=O)c2cc(-c3ccnnc3)ccc21` (stereo partly drawn) [Compound 122, 1-(2-((2S,4R)-4-fluoro-2-(8-methoxy-6-methylchroman-4-ylcarbamoyl)pyrrolidin-1-yl)-2-oxoethyl)-5-(pyridazin-4-yl)-1H-indazole-3-carboxamide]: the IC50 was more than 10 µM.

In turn, `CC(=O)c1cn(CC(=O)N2C[C@H](F)C[C@H]2C(=O)Nc2nc(-c3c(C)nc4sccn34)cs2)c2ccc(-c3ccnnc3)cc12` [Compound 57, (2S,4R)-1-(2-(3-acetyl-5-(pyridazin-4-yl)-1H-indol-1-yl)acetyl)-4-fluoro-N-(4-(6-methylimidazo[2,1-b]thiazol-5-yl)thiazol-2-yl)pyrrolidine-2-carboxamide] yielded a 50% inhibitory concentration (IC50) of more than 10 µM.

In the case of `CC(=O)Nc1ncc(-c2ccc3c(c2)c(C(C)=O)cn3CC(=O)N2C[C@H](F)C[C@H]2C(=O)Nc2cccc(Br)n2)cn1` [Compound 118, (2S,4R)-1-(2-(5-(2-acetamidopyrimidin-5-yl)-3-acetyl-1H-indol-1-yl)acetyl)-N-(6-bromopyridin-2-yl)-4-fluoropyrrolidine-2-carboxamide], the IC50 was less than 1 µM.

`NC(=O)c1nn(CC(=O)N2C[C@H](F)C[C@H]2C(=O)NCc2cccc(Cl)c2F)c2cnc(-c3cncnc3)cc12` [Compound 18, 1-(2-((2S,4R)-2-(3-chloro-2-fluorobenzylcarbamoyl)-4-fluoropyrrolidin-1-yl)-2-oxoethyl)-5-(pyrimidin-5-yl)-1H-pyrazolo[3,4-c]pyridine-3-carboxamide] came in with an IC50 of less than 1 µM.

Turning to `COc1cc(C)cc2c1OCCC2NC(=O)[C@@H]1C[C@@H](F)CN1C(=O)Cn1cc(C(C)=O)c2cc(-c3ccnnc3)ccc21` (stereo partly drawn) [Compound 123, (2S,4R)-1-(2-(3-acetyl-5-(pyridazin-4-yl)-1H-indol-1-yl)acetyl)-4-fluoro-N-(8-methoxy-6-methylchroman-4-yl)pyrrolidine-2-carboxamide], the IC50 is more than 10 µM.
